Measurements: paper PMC4502315, “High Potency of a Novel Resveratrol Derivative, 3,3′,4,4′-Tetrahydroxy-trans-stilbene, against Ovarian Cancer Is Associated with an Oxidative Stress-Mediated Imbalance between DNA Damage Accumulation and Repair” (Oxidative Medicine and Cellular Longevity, 2015)
Like-named read-outs stand apart in the source and are kept apart here.

Experiments:
SKOV-3 = assay: MTT viability assay, SKOV-3; type: cell-based; details: Homo sapiens; for IC50: SK-OV-3, 24 h
Experimental: (§1) Cell viability was assessed with the MTT test and with lactate dehydrogenase (LDH) release assay. As per the MTT method, normal and cancer cells were seeded into 96-well plates at high density and allowed to attach overnight. Then they were incubated in a medium containing 1.25 mg/mL of the MTT salt [3-(4,5-dimethylthiazol-2-yl)-2,5-diphenyltetrazolium bromide] for 24 h at 37°C. The generated formazan was solubilized with 20% sodium dodecyl sulphate and 50% N,N-dimethylformamide. Absorbance of the converted dye was recorded at 595 nm with a reference wavelength of 690 nm.
(§2) In order to examine the effect of 3,3′,4,4′-THS on the viability of ovarian cancer cells and to compare its activity with RVT, subconfluent cultures of A2780, OVCAR-3, and SKOV-3 cells were subjected to a wide range of stilbene concentrations (0–500 μM) for 24 h; then MTT and LDH release assays were performed.

HPMCs [1] = assay: MTT viability assay, HPMCs; type: cell-based, human; details: 24 h; for IC50: Homo sapiens, CalcuSyn; for concentration up to which viability was maintained: cytotoxicity tests (MTT and LDH release)
Experimental: as §1, §2

HOSE cells = assay: LDH release assay, HOSE cells; type: cell-based, human; details: Homo sapiens, 24 h, CalcuSyn
[2] = system: superoxide dismutase (SOD); assay: SOD activity in cell lysates, SKOV-3; type: cell-based, human; details: 24 h, 10, 50, 100 μM tested
Experimental: (§3) Total activity of superoxide dismutase (SOD) was measured in cell lysates with a commercially available kit (R&D Systems Europe, Abingdon, UK), while the activity of catalase (CAT) was estimated by using the OxiSelect Catalase Activity Assay Kit (Cell Biolabs Inc., San Diego, CA, USA). Both assays were performed according to the manufacturer's instructions.

[3] = system: superoxide dismutase (SOD); assay: SOD activity in cell lysates, HOSE cells; type: cell-based, human; details: 24 h, percentage of control cells
Experimental: as §3

catalase (CAT) = assay: CAT activity, A2780; type: cell-based, human; details: 24 h, 10, 50, 100 μM tested
Experimental: as §3

HPMCs [4] = assay: Oxidative DNA damage (8-OH-dG immunoassay), HPMCs; type: cell-based, human; details: 24 h, percentage of control cells
Experimental: (§4) Oxidative DNA damage was assessed by measuring the 8-OH-dG concentration with a competitive immunoassay (Cell Biolabs Inc.), as per manufacturer's instructions. The efficiency of 8-OH-dG repair was estimated after cell recovery for 24 h in standard growth medium. In order to examine the activity of DNA glycosylase I, reverse transcription PCR was performed. RNA extraction was carried out using the RNA Bee (Tel-Test, Friendswood, Texas, USA) and purified according to the manufacturer's protocol. One microgram of RNA was reverse transcribed into cDNA with random hexamer primers, and cDNA was subjected to PCR. The profile of the replication cycles was denaturation at 94°C for 50 s, annealing at 58°C for 50 s, and polymerization at 72°C for 1 min. In each reaction, the expression of glyceraldehyde-3-phosphate dehydrogenase (GAPDH) served as the internal control. The primers used for PCR were as follows: hOGG1 forward, 5′-[…]-3′; hOGG1 reverse, 5′-TAGCCCGCCCTGTTCTTC-3′ designed to amplify a 551-bp region; GAPDH forward, 5′-CCATGGAGAAGGCTGGGG-3′; and GAPDH reverse 5′-[…]-3′ designed to amplify a 194-bp region (total number of cycles: 28). The PCR products were separated on 3% agarose gels stained with ethidium bromide and then visualized.

A2780 cells = assay: Apoptosis (Hoechst 33258), A2780; type: cell-based, human; details: 24 h, 10, 50, 100 μM tested
Experimental: (§5) Identification of apoptosis was based on the presence of DNA condensation in cells stained with a fluorescent dye, Hoechst 33258 (Molecular Probes, Eugene, OR). Cells were grown on Lab-Tek Chamber Slides (Nunc, Roskilde, Denmark), fixed with 4% formaldehyde for 10 min and washed twice with PBS. Then the cells were incubated with Hoechst 33258 (0.1 μg/mL) for 5 min in the dark. After washing with PBS, stained nuclei were observed and counted under a Zeiss Axio Observer D1 fluorescence microscope (Carl Zeiss, Jena, Germany). The activity of caspases 3, 8, and 9 was quantified in the cell lysates using specific colorimetric kits (Abcam, Cambridge, UK) according to the manufacturer's instructions.

HPMCs [5] = assay: Apoptosis (Hoechst 33258), HPMCs; type: cell-based, human; details: 24 h, percentage of control cells
Experimental: as §5

SKOV-3 cells = assay: Cell proliferation (CFDA SE), SKOV-3; type: cell-based, human; details: low-density cultures, 24 h, 10, 50, 100 μM tested
Experimental: (§6) Cell proliferative potential was determined using Cell Proliferation Kit I (PromoKine, Heidelberg, Germany) according to the manufacturer's instructions. In brief, cells were probed for 15 min with 5-(and 6)-carboxyfluorescein diacetate, a succinimidyl ester (CFDA SE; 2 μM) which diffuses into cells, covalently binds to proteins, and becomes fluorescent upon its hydrolysis by intracellular esterases. The fluorescence emitted by the cells (the dye is inherited by the daughter cells through successive divisions) was recorded using a Victor2 spectrofluorometer (Perkin-Elmer, Turku, Finland) with excitation at 435 nm and emission at 535 nm.

HPMCs [6] = assay: Cell proliferation (CFDA SE), HPMCs; type: cell-based, human; details: 24 h, percentage of control cells
Experimental: as §6

p38 MAPK [7] = assay: p38 MAPK activation (FACE ELISA), OVCAR-3; type: cell-based, human; details: 24 h, 10, 50, 100 μM tested
Experimental: (§7) Activation of p38 MAPK was examined using the Fast Activated Cell-Based ELISA (FACE) p38 kit (Active Motif) according to the manufacturer's instructions. In brief, cells were fixed with 4% formaldehyde and incubated with a primary antibody that recognizes either phosphorylated p38 or total p38 overnight at 4°C. Then the cells were washed and incubated with a secondary HRP-conjugated antibody for 1 h at room temperature. The color reaction that developed was read using a spectrofluorometer at 450 nm wavelength.
(§8) The results were expressed as a ratio of phosphorylated to total p38 activity.

p38 MAPK [8] = assay: p38 MAPK activation (FACE ELISA), HPMCs; type: cell-based, human; details: 24 h, percentage of control cells
Experimental: as §7, §8

caspase-9 = assay: Caspase-9 activity in ovarian cancer cell lysates; type: cell-based, human; details: ovarian cancer cells (A2780, OVCAR-3, SKOV-3); 24 h
Experimental: as §5

[9] = system: ovarian cancer cells (A2780, OVCAR-3, SKOV-3); assay: Efficiency of 8-OH-dG repair after 24-h recovery, ovarian cancer cells; type: cell-based, human; details: all three cancer cell lines; 24-h stilbene exposure then 24-h recovery
Experimental: as §4
The cancer cells were treated with RVT and 3,3′,4,4′-THS to cause DNA injury; then they were washed and kept in standard growth medium to recover.

[10] = CalcuSyn, read-out: IC50, MTT assay

IC50 (SKOV-3; [10]) [µM] | IC50 (HOSE cells) [µM] | SMILES | IC50 (HPMCs [1]) [µM] | concentration up to which viability was maintained (HPMCs [1]) | SOD activity, effect in words [2] | SOD ([3]; 10 μM) | SOD ([3]; 50 μM) | SOD ([3]; 100 μM) | CAT activity, effect in words (catalase (CAT)) | 8-OH-dG (HPMCs [4]; 10 μM) | 8-OH-dG (HPMCs [4]; 50 μM) | 8-OH-dG (HPMCs [4]; 100 μM) | incidence of apoptosis (rise in percentage of death cells), effect in words (A2780 cells) | Apoptosis (HPMCs [5]; 10 μM) [%] | Apoptosis (HPMCs [5]; 50 μM) [%] | Apoptosis (HPMCs [5]; 100 μM) [%] | proliferation, effect in words (SKOV-3 cells) | Proliferation (HPMCs [6]; 10 μM) | Proliferation (HPMCs [6]; 50 μM) [%] | Proliferation (HPMCs [6]; 100 μM) [%] | other results
8 | 532 | Oc1ccc(/C=C/c2ccc(O)c(O)c2)cc1O [3,3′,4,4′-THS, 3,3′,4,4′-tetrahydroxy-trans-stilbene] | 496 | up to 300 μM | downregulated it at 50 and 100 μM | 122 ± 1^∗# % | 141 ± 5^∗# % | 136 ± 2^∗# % | did not change CAT activity | 91 ± 2^∗# % | 88 ± 3^∗# % | 76 ± 3^∗# % | evident starting from the lowest concentration of 10 μM | 98 ± 2 | 102 ± 2 | 100 ± 4 | evident at as low a concentration as 10 μM | 141 ± 3^∗# % | 103 ± 1 | 102 ± 2 | viability at 10 µM (SKOV-3; SK-OV-3, 10 μM, 24 h, percentage of control cells): 40 ± 2%; viability at 50 µM (SKOV-3; SK-OV-3, 50 μM, 24 h, percentage of control cells): 39 ± 4%; viability at 100 µM (SKOV-3; SK-OV-3, 100 μM, 24 h, percentage of control cells): 35 ± 2%; IC50 (SKOV-3; read-out: IC50 (range over MTT and LDH release assays)): 8 to 10 µM; p38 MAPK activity (phosphorylated/total), effect in words (p38 MAPK [7]): exerted upregulatory activity at 50 and 100 μM; p38 MAPK (p38 MAPK [8]; 10 μM): 82 ± 3^∗# %; p38 MAPK (p38 MAPK [8]; 50 μM): 81 ± 6^∗# %; p38 MAPK (p38 MAPK [8]; 100 μM): 104 ± 2%; caspase-9 activity, effect in words (caspase-9): increased the activity of the same caspases as RVT did; 8-OH-dG level after 24-h recovery in standard growth medium, in words [9]: still markedly higher than in the unstimulated cells
380 | 421 | Oc1ccc(/C=C/c2cc(O)cc(O)c2)cc1 [RVT, 3,4′,5-trihydroxy-trans-stilbene, reference compound] | 465 | up to 300 μM | failed to affect SOD activity | 111 ± 3^∗ % | 112 ± 3^∗ % | 121 ± 4^∗ % | stimulated the enzyme at 10 μM in the OVCAR-3 cells, at 50 μM in the A2780, OVCAR-3, and SKOV-3 cells, and at 100 μM in the OVCAR-3 and SKOV-3 cells | 103 ± 3% | 103 ± 2% | 102 ± 5% | exhibiting its impact at concentrations of 50 and 100 μM for the A2780 and SKOV-3 cells | 101 ± 1 | 101 ± 1 | 98 ± 3 | such a low dose was effective in SKOV-3 cultures only | 99 ± 3% | 103 ± 4 | 102 ± 2 | p38 MAPK activity (phosphorylated/total), effect in words (p38 MAPK [7]): failed to activate p38 MAPK; p38 MAPK (p38 MAPK [8]; 10 μM): 113 ± 16%; p38 MAPK (p38 MAPK [8]; 50 μM): 103 ± 2%; p38 MAPK (p38 MAPK [8]; 100 μM): 105 ± 7%; caspase-9 activity, effect in words (caspase-9): activated caspases 9 and 3, and this activity was evident at 50 and 100 μM; 8-OH-dG level after 24-h recovery in standard growth medium, in words [9]: returned to basal values within 24 h
